Measurements published in US8524755B2 (priority 2009, dated 2013).

How the values were obtained:
[1] = [14C]RD162′ radio-HPLC metabolite profile in Pooled Rat Plasma; format: in vivo, Sprague Dawley rats; details: [14C]RD162′ 100 mg/kg/day oral, day 7, 4 h
Protocol: The rats were dosed once a day for seven consecutive days; four hours after dosing on the seventh day, plasma was collected from all three rats. The plasma samples were stored at approximately −70° C. or colder.
Positive ion electrospray LC/MS and LC/MS/MS were used to analyze the metabolites.
To prepare the Pooled Rat Plasma for HPLC analysis, approximately 1 g of the plasma sample was combined with acetonitrile (ACN, sample:ACN, 1:3, v:v), vortex mixed, sonicated in cold water, centrifuged, and the supernatants were removed. The extraction was repeated twice and the respective supernatants were combined. […] The combined supernatants were evaporated to dryness and reconstituted in 1 mL of 0.1% formic acid in reverse osmosis (RO) water:ACN: methanol (MeOH, 50:45:5, v:v:v). […] The reconstituted sample was analyzed by HPLC to determine the metabolite profile with fractions collected at 10-second intervals and analyzed by solid scintillation counting.
The prepared samples were analyzed using the following LC/MS/MS conditions: HPLC: Hewlett Packard 1100 series; Mobile Phase: 0.1% formic acid in reverse osmosis water (A) and acetonitrile (B); Column: Agilent Eclipse XDB-C18, 4.6×150 mm, 5 μm; Guard column: Phenomenex Security Guard Cartridge C18, 3×4 mm; Column temperature: 20° C.; Gradient: 20-80% B in 40 min; Flow Rate: 1.5 mL/min.

Androgen Receptor = target: T1, Androgen Receptor (Homo sapiens, UniProt P10275); assay: Androgen Receptor Nuclear Translocation Assay; format: cell-based; details: agonist mode; PathHunter NHRPro cells; 5 h; read-out: AR Nuclear Translocation Assay Agonist Mode EC50
T1 construct: expressed in transfected cells; host or cells: PathHunter NHRPro cell lines
T1 sequence (P10275 1-920): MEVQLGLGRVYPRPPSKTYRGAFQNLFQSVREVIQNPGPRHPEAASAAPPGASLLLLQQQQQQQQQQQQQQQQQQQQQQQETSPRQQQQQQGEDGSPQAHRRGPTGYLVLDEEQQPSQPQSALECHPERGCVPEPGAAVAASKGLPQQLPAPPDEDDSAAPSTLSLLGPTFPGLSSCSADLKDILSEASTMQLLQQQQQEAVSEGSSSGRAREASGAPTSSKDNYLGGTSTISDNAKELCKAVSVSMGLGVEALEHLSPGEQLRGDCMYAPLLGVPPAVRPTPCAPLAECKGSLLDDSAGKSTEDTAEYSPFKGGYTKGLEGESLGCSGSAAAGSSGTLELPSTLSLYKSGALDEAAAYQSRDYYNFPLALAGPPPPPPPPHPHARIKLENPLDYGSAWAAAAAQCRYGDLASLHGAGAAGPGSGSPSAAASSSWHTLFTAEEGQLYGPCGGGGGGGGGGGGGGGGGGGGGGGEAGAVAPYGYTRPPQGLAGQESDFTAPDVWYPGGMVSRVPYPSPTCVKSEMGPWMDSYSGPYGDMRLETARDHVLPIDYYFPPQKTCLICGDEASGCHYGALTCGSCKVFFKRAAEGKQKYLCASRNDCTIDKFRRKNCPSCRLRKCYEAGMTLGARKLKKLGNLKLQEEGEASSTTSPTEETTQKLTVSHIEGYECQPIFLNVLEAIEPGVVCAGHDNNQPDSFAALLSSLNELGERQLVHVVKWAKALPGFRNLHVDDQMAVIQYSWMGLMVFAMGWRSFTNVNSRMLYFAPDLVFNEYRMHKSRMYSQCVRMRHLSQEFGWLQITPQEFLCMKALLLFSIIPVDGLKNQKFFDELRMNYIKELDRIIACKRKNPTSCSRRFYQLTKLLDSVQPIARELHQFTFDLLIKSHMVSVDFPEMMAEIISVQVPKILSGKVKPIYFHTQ
Protocol: Once it was established that the cells were healthy and growing normally, cells were transferred from flasks using trypsin-free cell dissociation buffer and seeded into white walled clear bottom 384-well microplates for compound profiling. For profiling, cells were seeded at a density of 10,000 cells per well in a total volume of 50 μL and were allowed to adhere and recover overnight prior to compound addition. Media contained charcoal-dextran filtered serum to reduce the level of hormones present.
Agonist Format: Intermediate dilution of compound stocks were generated such that 5.5 μL of 10X compound could be added to each well with a final DMSO concentration of 1% of total volume. For profiling compound in agonist mode, the cells were incubated in the presence of compound at 37° C. for 5 h.
Antagonist Format: Agonist dose curves were performed to determine the EC80 value for the following antagonist testing with compounds. 5.5 μL of 10× agonist was added to each well with an equal concentration of vehicle present. EC80 agonist concentration was determined directly from agonist dose curve. For antagonist determination, cells were pre-incubated with antagonist followed by agonist challenge at the EC80 concentration: 5.5 μL of 10× compound added to cells and incubated at 37° C. for 1 h; 5.5 μL of 11× EC80 agonist added to cells and incubated at 37° C. for 5 h.
Signal Detection: After appropriate compound incubation, assay signal was generated through a single addition of 30 μL (50% v/v) of PathHunter Detection reagent cocktail for agonist and antagonist assays respectively followed by 1 h incubation at room temperature. Microplates were read following signal generation with a PerkinElmer ViewLux™ instrument for chemiluminescent signal detection.
Data Analysis: Dose curves in the presence and absence of compound were plotted using GraphPad Prism.

Compound | % Injected Radioactivity (%) [1] | % Recovered Radioactivity (%) [1] | Peak Area (mV) [1] | Peak Height (mV) [1] | EC50 (Androgen Receptor)
CC1(C)C(=O)N(c2ccc(C#N)c(C(F)(F)F)c2)C(=O)N1c1ccc(C(=O)O)c(F)c1 [(MV), 4-(3-(4-cyano-3-(trifluoromethyl)phenyl)-5,5-dimethyl-2,4-dioxoimidazolidin-1-yl)-2-fluorobenzoic acid] | 5.76% | 9.05% | 308 mV | 49 mV | –
Norgesterol [reference compound] | – | – | – | – | 2.9 nM
